From paper PMC5679629, “Flavin-containing monooxygenase 3 (FMO3) role in busulphan metabolic pathway” (PLoS ONE, 2017)

Legend:
CYP3A4 = target: T1, CYP3A4 (Homo sapiens, UniProt P08684); test: THT disappearance with recombinant cDNA-expressed enzyme microsomes; assay type: in vitro ADME; details: 25μM THT, 35pmol CYP/mL
T1 construct: purchased BD Biosciences; host or cells: baculovirus infected insect cells
Experimental: (§1) To identify the enzymes involved in Bu metabolism, 11 microsomal batches (BD Biosciences, Stockholm, Sweden), each containing a separate cDNA-expressed enzyme, were incubated with 25μM THT. The microsomes contained FMO3, CYP1A1, CYP1A2, CYP2B6, CYP2C8, CYP2C9, CYP2C19, CYP2D6, CYP2E1, CYP3A4 or CYP4A11. Time curves (0, 5, 15, 30 and 60min) were performed at a concentration of 0.35mg protein /mL for FMO3 and 35pmol CYP/mL for the CYP enzymes. The recombinant enzymes were produced from human cDNA expressing each of them using baculovirus expression system. Baculovirus infected insect cells were used to prepare these microsomes.
(§2) Incubations were performed in triplicate and negative controls (excluding NADPH, microsomes, THT or by terminating the incubations before the addition of NADPH) were run in parallel.
(§3) To measure THT and the secondary metabolite, sulfolane, the reactions were terminated by adding dichloromethane. Samples (180μL) were added to 10μM nicotine (20μL, Merck, Hoherbrunn, Germany), used as an internal standard, before extraction. The matrix was extracted by liquid-liquid extraction with dichloromethane (equal volumes, 200μL) after 30 sec of high speed vortexing. After extraction and centrifugation at 16000 g for 10 min, the organic phase was transferred into GC-MS tubes. […] Samples (180μL) were added to 10 μM of 3-methylsulfolane (20μL, TCI, Tokyo, Japan), used as an internal standard. The matrix was lyophilized (< 1 mbar at 40°C under N2 stream) to dryness, the residue was dissolved in 10 μL water and 200 μL of ethyl acetate was added for extraction. Samples were vortexed for 30 sec at high speed and centrifuged at 16000 g for 10 min. The organic phase was transferred to GC-MS tubes.
(§4) Concentrations of THT and its metabolites were measured using GC-MS [18] after validation for use with microsomal incubations according to the international guidelines.

CYP2C19 = target: T2, CYP2C19 (Homo sapiens, UniProt P33261); test: as above; assay type: in vitro ADME; details: 25μM THT, 35pmol CYP/mL
T2 construct: purchased BD Biosciences; host or cells: baculovirus infected insect cells
T2 sequence (P33261 whole entry): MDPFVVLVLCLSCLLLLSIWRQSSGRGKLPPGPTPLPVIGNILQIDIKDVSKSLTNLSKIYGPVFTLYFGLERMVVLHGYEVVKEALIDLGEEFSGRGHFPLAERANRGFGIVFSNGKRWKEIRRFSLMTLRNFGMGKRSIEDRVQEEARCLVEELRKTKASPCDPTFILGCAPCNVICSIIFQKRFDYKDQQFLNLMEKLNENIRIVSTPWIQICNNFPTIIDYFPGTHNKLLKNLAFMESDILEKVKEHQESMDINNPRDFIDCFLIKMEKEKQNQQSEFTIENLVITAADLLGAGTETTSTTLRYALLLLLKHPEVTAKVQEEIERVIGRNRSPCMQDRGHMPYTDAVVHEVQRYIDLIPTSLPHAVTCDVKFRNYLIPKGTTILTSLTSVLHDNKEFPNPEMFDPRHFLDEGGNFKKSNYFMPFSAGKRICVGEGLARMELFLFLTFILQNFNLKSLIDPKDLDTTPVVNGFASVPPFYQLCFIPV
Experimental: as §1, §2, §3, §4

[1] = THT kinetics in mice (alone or after PTU pretreatment); assay type: in vivo, Male C57BL/6N mice; details: THT-treated mice (8.8mg/kg i.p.) pretreated with PTU 3mg/kg i.p. for 3 days
Experimental: Standard laboratory chow and water ad libitum was introduced.
THT was also prepared as a 2mM solution in DMSO and the dose given was equimolar to the Bu treatment (i.e. 100μmol/kg or 8.8 mg/kg). […] At the appropriate time points (10min, 30min, 1h, 2h, 4h, 6h and 8h), mice (three mice at each time point) were anesthetized using 2% isoflurane and the blood samples were collected by heart puncture. Mice were euthanized by cervical dislocation. Plasma was separated and stored at -20°C.
A similar experiment was performed in a second group of mice, after 3 days of i.p. injections with the FMO3-inhibitor, Phenylthiourea (PTU, Sigma-Aldrich, Stockholm, Sweden, S1 Fig). PTU (3mg/kg) was dissolved in DMSO and diluted with physiological NaCl solution and then injected into the mice once daily followed by Bu or THT injections on the 4th day.
Briefly, 500 μL of plasma were diluted with 500 μL of water. Fifty microliters of the internal standard (1,5-bis(methanesulfonoxy)pentane; 38.5 μM) were added, followed by the addition of 1 mL of sodium iodide (8M, Merck, Darmstadt, Germany) and 400μL of n-heptane (Merck, Darmstadt, Germany). […] The organic phase was analyzed by GC-MS [18]. THT was quantified as described previously and the method was validated for use with mouse plasma before measuring both Bu and THT [19, 20].

[2] = Busulphan and THT plasma kinetics in a patient treated concomitantly with voriconazole; assay type: in vivo, human; details: Bu 2mg/kg b.i.d. with concomitant voriconazole
Experimental: In order to confirm the contribution of FMO3 to human Bu kinetics, blood samples were collected (routinely) from a patient who underwent stem cell transplantation and was conditioned according to the hospital transplantation protocol i.e. high dose of Bu (2mg/kg b.i.d.) for four days followed with two days of cyclophosphamide (60mg/kg). […] Voriconazole was administered, according to the hospital clinical protocol, for the treatment of an acute fungal infection.
Samples were taken for therapeutic drug monitoring (TDM) at several time points after the first, third and fifth doses. Blood was collected into EDTA vacutainer tubes, plasma was separated by centrifugation at 1200 g and stored at -20°C until analysis of Bu and THT [18].

[3] = test system: pooled human liver microsomes (HLM); test: THT disappearance on incubation with pooled human liver microsomes, with heat-inactivation of FMO3 or carbon monoxide inactivation of CYPs; assay type: in vitro ADME
Experimental: THT (Sigma-Aldrich, Stockholm, Sweden) was received as a liquid solution and stock solutions were prepared daily and diluted in 50mM potassium phosphate buffer pH 7.4.
Linearity of the reactions with time, enzyme and THT concentrations was determined before measuring apparent enzyme kinetic constants; pooled human liver microsomes (HLM) (Cypex, Dundee, UK) were incubated at different enzyme concentrations with a range of THT concentrations (10–500μM).
Time curves were performed by incubating microsomes in 50mM potassium phosphate buffer (pH 7.4) in a total volume of 200μL. The reaction was started by the addition of NADPH (Sigma-Aldrich, St. Louis, USA) to a final concentration of 1mM and terminated by adding one volume of ice cold dicholormethane (Fluka, Seeze, Germany).
The relative contribution of CYPs and FMO3 in the metabolism of THT was studied by heat-inactivation of FMO3 in some incubations and, in other incubations, CYP enzymes in HLM were inactivated by carbon monoxide (AGA Gas, Enköping, Sweden) bubbling.
as §2
as §3, with “The matrix was lyophilized (< 1 mbar at 40°C under N2 stream) to dryness, the residue was dissolved in 10 μL water and 200 μL of ethyl acetate was added for extraction. Samples were vortexed for 30 sec at high speed and centrifuged at 16000 g for 10 min. The organic phase was transferred to GC-MS tubes.” left out
as §4

[4] = Busulphan kinetics in mice (alone, after PTU pretreatment, or with high-dose THT); details: mice injected with Bu and PTU
Experimental: Male C57BL/6N mice (6–8 weeks old) were purchased from Charles River (Cologne, Germany). The mice were allowed to acclimatize to the surroundings for 2 weeks with a 12h dark/12h light cycle and randomized for treatment. Standard laboratory chow and water ad libitum was introduced.
To study Bu and THT kinetics, Bu (Sigma-Aldrich, Steinheim, Germany) was administered i.p. (25mg/kg or 100μmol/kg) as a 2mM solution in DMSO (Sigma-Aldrich, Stockholm, Sweden) [21]. THT was also prepared as a 2mM solution in DMSO and the dose given was equimolar to the Bu treatment (i.e. 100μmol/kg or 8.8 mg/kg). Upon injection, samples were diluted with physiological NaCl solution to a final DMSO concentration of 10% in the dosing solution. At the appropriate time points (10min, 30min, 1h, 2h, 4h, 6h and 8h), mice (three mice at each time point) were anesthetized using 2% isoflurane and the blood samples were collected by heart puncture. Mice were euthanized by cervical dislocation. Plasma was separated and stored at -20°C.
PTU (3mg/kg) was dissolved in DMSO and diluted with physiological NaCl solution and then injected into the mice once daily followed by Bu or THT injections on the 4th day. The mice were euthanized and plasma samples prepared as in the previous experiment.
To detect the effect of high THT concentrations on Bu metabolism, a third group of mice was injected with both Bu (100μmol/kg) and a high dose of THT (17.6mg/kg or 200μmol/kg) and samples prepared as described previously. All experiments including negative controls (mice injected with 10% DMSO in NaCl solution) and mice injected with PTU alone were performed in triplicates.
To quantify Bu, samples were extracted according to the method reported previously by Hassan et al. [24]. Briefly, 500 μL of plasma were diluted with 500 μL of water. Fifty microliters of the internal standard (1,5-bis(methanesulfonoxy)pentane; 38.5 μM) were added, followed by the addition of 1 mL of sodium iodide (8M, Merck, Darmstadt, Germany) and 400μL of n-heptane (Merck, Darmstadt, Germany). The tubes were placed under magnetic stirring in a water bath (70°C) for 45 min. During the reaction, busulphan and 1,5-bis(methanesulfonoxy)pentane were converted to 1,4-diiodobutane and 1,5-diiodopentane respectively and subsequently extracted with n-heptane [25]. The conversion of busulphan and 1,5-bis(methanesulfonoxy)pentane to 1,4-diiodobutane and 1,5-diiodopentane was over 90% [24]. The organic phase was analyzed by GC-MS [18]. THT was quantified as described previously and the method was validated for use with mouse plasma before measuring both Bu and THT [19, 20].
Kinetic parameters from in vivo studies were estimated using WinNonLin software (standard edition, version 2.0), while Microsoft Excel and SigmaPlot software (version 12.5, Systat software, Inc.) were utilized for in vitro kinetics.

T1 sequence (P08684 whole entry): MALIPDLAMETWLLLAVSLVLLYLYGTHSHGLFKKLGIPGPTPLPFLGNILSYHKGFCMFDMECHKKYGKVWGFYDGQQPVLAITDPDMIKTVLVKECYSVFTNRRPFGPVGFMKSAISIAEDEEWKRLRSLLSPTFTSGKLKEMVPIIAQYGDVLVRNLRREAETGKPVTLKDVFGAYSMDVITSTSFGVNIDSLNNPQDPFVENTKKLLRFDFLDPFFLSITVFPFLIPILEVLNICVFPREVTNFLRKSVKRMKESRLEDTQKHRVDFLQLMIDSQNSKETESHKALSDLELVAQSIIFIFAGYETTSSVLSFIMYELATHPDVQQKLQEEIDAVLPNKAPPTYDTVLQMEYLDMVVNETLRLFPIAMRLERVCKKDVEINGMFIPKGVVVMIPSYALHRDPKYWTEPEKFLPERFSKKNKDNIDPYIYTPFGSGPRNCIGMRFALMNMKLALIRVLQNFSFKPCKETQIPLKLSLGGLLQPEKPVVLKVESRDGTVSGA

## C1CCSC1 [THT, tetrahydrothiophene]
CYP3A4
  v0: 3.66 nmol/min/mL
  v0/CYP: 0.11 nmol/min/pmol CYP
CYP2C19
  v0: 1.51 nmol/min/mL
  v0/CYP: 0.04 nmol/min/pmol CYP
[1]
  THT concentrations versus THT only: significantly (P<0.05, t-test) higher
[2]
  THT concentrations versus Bu alone: higher concentrations than with Bu alone
  time at which THT was detected after the first dose of Bu: 1 h
[3]
  THT disappearance on incubation with HLM: rapid THT disappearance
  reduction of THT disappearance by CYP inhibition by carbon monoxide: 9%
[3]; within 60 min
  reduction of THT disappearance by inactivation of FMO3 (heat treatment): 44%
[4]
  THT concentrations versus Bu alone: significantly (P<0.05, t-test) increased
